This test concerns Dog PRP. Kind of test: In-Vitro Platelet Aggregation in PRP (ADP-induced). The class given is cell-based. The settings on record: dog platelet-rich plasma, ADP-induced aggregation (50 μm final concentration), 37° C.; for Dog PRP % Inhibition: Test Concentration 1 × 10^-5; for pIC50: 1 minute preincubation, linear regression of dose response curve. How it is done:
Healthy male or female dogs were fasted for 8 hours prior to drawing blood; then 30 ml whole blood was collected using a butterfly needle and 30 cc plastic syringe with 3 ml of 0.129M buffered sodium citrate (3.8%). The syringe was rotated carefully as blood was drawn to mix the citrate. Platelet-rich plasma (PRP) was prepared by centrifugation at 975× g for 3.17 minutes at room temperature, allowing the centrifuge to coast to a stop without braking. The PRP was removed from the blood with a plastic pipette and placed in a plastic capped, 50 ml Corning conical sterile centrifuge tube which was held at room temperature. Platelet poor plasma (PPP) was prepared by centrifuging the remaining blood at 2000× g for 15 minutes at room temperature allowing the centrifuge to coast to a stop without braking. The PRP was adjusted with PPP to a count of 2-3×10^8 platelets per ml. 400 μl of the PRP preparation and 50 μl of the compound to be tested as prepared below or saline were preincubated for 1 minute at 37° C. in a BioData aggregometer (BioData, Horsham, Pa.). 50 μl of adenosine 5'diphosphate (ADP) (50 μm final concentration) was added to the cuvettes and the aggregation was monitored for 1 minute. The test compounds were prepared by the following procedure. The compound was dissolved in 100% ethanol at a concentration of 10^-2 M. It was vortexed for 30 seconds followed by the addition of 1.1 equivalents of 1N NaOH. This solution was mixed for 30 minutes at room temperature. After the 30 minutes of mixing, the compound solution was brought to a working concentration of 10^-3 M with double distilled water. All compounds are tested in duplicate. Results are calculated as follows:
Percent of control= (maximal OD minus initial OD of compound) divided by (maximal OD minus initial OD of control saline)!×100. The % inhibition=100-(percent of control).
The assay results for the representative compounds of the present invention are set forth in Table A. Also in Table A, two readings given in a single box indicate that two trials, rather than a single trial, were run for that particular compound in that particular assay.

Where [1] appears, read: Canis lupus familiaris, Platelet.

pIC50: −log10 of the molar value. Values joined by “and” are separate entries in the source; they are usually repeats but may differ in a detail not shown here. Equal entries are not always repeated. Structures can show the parent of a compound that is named as a salt.

On to `N=C(N)c1ccc(CCCCC2CCCC(=O)O2)cc1` (racemic) [6-4-(4-(aminoiminomethyl)phenyl)butyl)tetrahydro-2H -pyran-2-one], for which the “Dog PRP % Inhibition” value is 29% and 38%.
The term pIC50 denotes the IC50 on a negative log10 scale, so that one unit is a factor of ten. Low values mean a high IC50, high ones a low IC50. Regarding `COC(=O)CC1CC(=O)OC(CCCCc2ccc(C(=N)N)cc2)C1` (racemic) [(±)-cis-methyl 2-4-4-(aminoiminomethyl)phenyl!butyl!tetrahydro-6-oxo-2H-pyran-4-acetate], the negative logarithm of the IC50 (pIC50) is 5.40 and the “Dog PRP % Inhibition” value was found to be 100%.
Consider `N=C(N)c1ccc(CCCC[C@@H]2C[C@H](c3cccnc3)CC(=O)O2)cc1` (relative stereo) [(±)-cis-6-4-4-(Aminoiminomethyl)phenyl)butyl!tetrahydro-4-(3-pyridinyl)-2H-pyran-2-one, ditrifluoroacetate], for which the “Dog PRP % Inhibition” value was determined as 100%. This compound had a pIC50 under setting [1] of 6.80.
The matching figures for `C[C@@H]1CC(=O)O[C@H](CCCCc2ccc(C(=N)N)cc2)C1` (relative stereo) [(±)-cis-6-4-4-(Aminoiminomethyl)phenyl)butyl!tetrahydro-4-methyl-2H-pyran-2-one, trifluoroacetate]: 74% and 5.15.
On the same counts, the results for `N=C(N)c1ccc(CCCC[C@@H]2C[C@H](c3ccccc3)CC(=O)O2)cc1` (relative stereo) [(±)-cis-6-4-4-(Aminoiminomethyl)phenyl)butyl!tetrahydro-4-phenyl-2H-pyran-2-one, trifluoroacetate] are 100% and 5.38.
On to `N=C(N)c1ccc(CCCC[C@@H]2C[C@H](CS(=O)(=O)c3ccccc3)CC(=O)O2)cc1` (relative stereo) [(±)-cis-6-4-4-(aminoiminomethyl)phenyl!butyl!tetrahydro-4-(phenylsulfonyl)methyl!-2H-pyran-2-one, trifluoroacetate], for which the “Dog PRP % Inhibition” value is reported as 100%. For the same compound, the pIC50 under setting [1] is 5.59.
Consider `N=C(N)c1ccc(CCCC[C@@H]2C[C@H](O)CC(=O)O2)cc1` (relative stereo) [(±)-cis-6-4-4-Aminoiminomethyl)phenyl!butyl!tetrahydro-4-hydroxy-2H-pyran-2-one, trifluoroacetate], for which the pIC50 is 5.39; the “Dog PRP % Inhibition” value is 89% and 96%. Moreover, the pIC50 under setting [1] is 5.28.
For `C=C[C@@H]1CC(=O)O[C@H](CCCCc2ccc(C(=N)N)cc2)C1` (relative stereo) [(±)-cis-6-4-(4-(Aminoiminomethyl)phenyl)butyl!-4-ethenyl-tetrahydro-2H-pyran-2-one, trifluoroacetate], the “Dog PRP % Inhibition” value turned out to be 100%. The pIC50 under setting [1] is 5.59.
Turning to `N=C(N)c1ccc(CCCC[C@@H]2C[C@@H](c3ccccc3)CC(=O)O2)cc1` (relative stereo) [(±)-trans-6-4-4-(Aminoimino)phenyl)butyl!tetrahydro-4-phenyl-2H-pyran-2-one, trifluoroacetate], the “Dog PRP % Inhibition” value was 7%.
The same measure, in the same setting: the value for `N=C(N)c1ccc(CCCC[C@@H]2C[C@@H](O)CC(=O)O2)cc1` (relative stereo) [(±)-trans-6-4-4-(Aminoiminomethyl)phenyl!butyl!tetrahydro-4-hydroxy-2H-pyran-2-one, trifluoroacetate] was 36%.
Under setting [1], `N=C(N)c1ccc(NC(=O)CC[C@@H]2C[C@H](O)CC(=O)O2)cc1` [N-4-(aminoiminomethyl)phenyl!3,4,5,6-tetrahydro-6-oxo-4S-hydroxy-2H-pyran-2R-propanamide, trifluoroacetate] had a pIC50 of 6.46.
On the same count and under the same terms, the value for `N=C(N)c1ccc(NC(=O)CCC2CCCC(=O)O2)cc1` (centres unmarked) [N-4-(aminoiminomethyl)phenyl!tetrahydro-6-oxo-2H-pyran-2-propanamide, trifluoroacetate] was 5.54.

For the origin of these results see patent US5504106A, “Phenyl amidine alkanoic acids and lactones useful as platelet aggregation inhibitors” (G. D. Searle & Co., priority 1994, dated 1996).
